Legend:
Type in all cases: cell-based
[1] = biological target: T1, Her2 exon 20 YVMA insertion (A775_G776ins YVMA) (Homo sapiens, UniProt P04626, INS775YVMA); experiment: Ba/F3-Her2 Exon20 YVMA cell anti-proliferative assay (CellTiter 96 MTS, 72 h); conditions: Ba/F3-Her2 Exon20 YVMA cells
T1 construct: expressed in transfected cells; host or cells: Ba/F3 (murine pro-B) cells transduced with lentivirus from pLVX-IRES puro
Summary of the method: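 Anti-proliferation: compound series (top 10,000 nM, 4-fold steps) was applied to Ba/F3-Her2 Exon20 YVMA cells grown without IL-3 for 72 h. Viability was read colorimetrically (CellTiter 96 Aqueous One, A490, 2 h reagent incubation).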

[2] = biological target: T2, human EGFR L858R and T790M double mutation (Homo sapiens, UniProt P00533, L858R/T790M); experiment: Ba/F3-EGFR L858R/T790M cell anti-proliferative assay (CellTiter 96 MTS, 72 h); conditions: Ba/F3-EGFR L858R/T790M cells
T2 construct: expressed in transfected cells; host or cells: Ba/F3 (murine pro-B) cells transduced with lentivirus from pLVX-IRES puro
Method: An expression vector, pLVX-IRES puro (Clontech) coding for human EGFR L858R and T790M double mutation, was transfected into HEK293 cells by the Trans-Lentiviral ORF Packaging System (Thermo Scientific), to produce virus encoding EGFR L858R and T790M double mutations. Ba/F3 (DSMZ) cells maintained in RPMI 1640 medium supplemented with 10% fetal bovine serum, 200 μM L-glutamine/l 200 μg/mL penicillin/200 μg/mL streptomycin (Life Technology) and 10 ng/mL IL-3 (R&D system), were infected by EGFR L858R and T790M double mutation virus and subsequently selected by puromycin (Life Technology) selection and IL-3 depletion. […] The anti-proliferative activity of compounds was determined as follows: BaF3-EGFR L858R/T790M cells seeded in 96 well plates (2500 cells/well) were treated with test compound (dissolved in DMSO) at a series of concentrations (4-fold dilution, top concentration: 10,000 nM). The plates were incubated for 72 h in a 37° C. incubator with 5% CO2, and the number of viable cells in each well were measured indirectly by CellTiter 96® Aqueous One Solution Cell Proliferation Assay (Promega; this assay is a colorimetric method for determining the number of viable cells through measurement of their metabolic activity by detection of enzymatic conversion of tetrazolium salts into blue formazan derivatives). Reagent (20 μL) was added into each well, and the plates were returned to the incubator for 2 h. The absorbance in each well was then measured at 490 nm using an Envision plate reader (Perkin Elmer).

[3] = biological target: T3, human EGFR exon 20 insertion ASV (V769_D770insASV) (Homo sapiens, UniProt P00533, INS769ASV); experiment: Ba/F3-EGFR-Exon20-ASV cell anti-proliferative assay (CellTiter 96 MTS, 72 h); conditions: Ba/F3-EGFR-Exon20-ASV cells
T3 construct: expressed in transfected cells; host or cells: Ba/F3 (murine pro-B) cells transduced with lentivirus from pLVX-IRES puro
T3 sequence (P00533 with tags, fused parts or gaps INS769ASV): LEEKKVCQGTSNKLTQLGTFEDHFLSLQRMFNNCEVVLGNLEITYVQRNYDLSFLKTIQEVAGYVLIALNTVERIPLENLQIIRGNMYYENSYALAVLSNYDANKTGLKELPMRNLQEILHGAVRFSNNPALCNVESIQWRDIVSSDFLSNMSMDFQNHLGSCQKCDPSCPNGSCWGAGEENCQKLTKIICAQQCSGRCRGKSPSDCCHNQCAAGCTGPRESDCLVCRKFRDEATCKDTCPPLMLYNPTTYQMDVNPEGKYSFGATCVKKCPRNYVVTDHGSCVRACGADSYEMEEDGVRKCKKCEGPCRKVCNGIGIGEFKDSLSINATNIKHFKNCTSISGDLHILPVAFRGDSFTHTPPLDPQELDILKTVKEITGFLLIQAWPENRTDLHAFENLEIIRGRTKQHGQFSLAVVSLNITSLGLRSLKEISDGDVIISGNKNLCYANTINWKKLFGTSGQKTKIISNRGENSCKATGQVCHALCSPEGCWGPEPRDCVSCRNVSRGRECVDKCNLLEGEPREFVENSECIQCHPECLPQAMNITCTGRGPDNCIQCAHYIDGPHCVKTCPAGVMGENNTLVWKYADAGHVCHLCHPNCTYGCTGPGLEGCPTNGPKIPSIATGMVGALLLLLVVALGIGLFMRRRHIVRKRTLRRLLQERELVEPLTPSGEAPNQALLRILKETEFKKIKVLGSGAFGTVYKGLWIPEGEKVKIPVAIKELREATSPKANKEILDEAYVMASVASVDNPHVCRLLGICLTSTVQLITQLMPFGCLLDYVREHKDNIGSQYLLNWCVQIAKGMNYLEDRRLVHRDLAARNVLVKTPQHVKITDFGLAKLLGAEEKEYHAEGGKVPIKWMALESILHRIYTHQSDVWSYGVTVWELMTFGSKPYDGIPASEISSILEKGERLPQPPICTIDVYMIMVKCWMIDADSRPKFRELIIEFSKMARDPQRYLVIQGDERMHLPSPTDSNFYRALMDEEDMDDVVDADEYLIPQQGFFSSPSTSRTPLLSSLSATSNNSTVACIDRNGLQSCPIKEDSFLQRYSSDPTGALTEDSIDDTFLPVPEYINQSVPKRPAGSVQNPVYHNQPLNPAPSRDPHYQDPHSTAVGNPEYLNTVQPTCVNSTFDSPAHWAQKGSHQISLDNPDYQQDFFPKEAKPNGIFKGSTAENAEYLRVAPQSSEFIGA
Summary of the method: (§1)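 Viable-cell readout used absorbance at 490 nm of MTS-derived formazan, 2 h after reagent addition, following 72 h compound treatment at 37 °C, 5% CO2. Cells: puromycin-selected, IL-3-depleted Ba/F3 expressing EGFR exon 20 ASV or NPG; dosing 4-fold series from 10,000 nM.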

[4] = biological target: T4, human EGFR E746-A750 deletion and T790M Mutation (Homo sapiens, UniProt P00533, DEL746-750/T790M); experiment: Ba/F3-EGFR-Del/T790M cell anti-proliferative assay (CellTiter 96 MTS, 72 h); conditions: Ba/F3-EGFR-Del/T790M cells
T4 construct: expressed in transfected cells; host or cells: Ba/F3 (murine pro-B) cells transduced with lentivirus from pLVX-IRES puro
T4 sequence (P00533 with tags, fused parts or gaps DEL746-750/T790M): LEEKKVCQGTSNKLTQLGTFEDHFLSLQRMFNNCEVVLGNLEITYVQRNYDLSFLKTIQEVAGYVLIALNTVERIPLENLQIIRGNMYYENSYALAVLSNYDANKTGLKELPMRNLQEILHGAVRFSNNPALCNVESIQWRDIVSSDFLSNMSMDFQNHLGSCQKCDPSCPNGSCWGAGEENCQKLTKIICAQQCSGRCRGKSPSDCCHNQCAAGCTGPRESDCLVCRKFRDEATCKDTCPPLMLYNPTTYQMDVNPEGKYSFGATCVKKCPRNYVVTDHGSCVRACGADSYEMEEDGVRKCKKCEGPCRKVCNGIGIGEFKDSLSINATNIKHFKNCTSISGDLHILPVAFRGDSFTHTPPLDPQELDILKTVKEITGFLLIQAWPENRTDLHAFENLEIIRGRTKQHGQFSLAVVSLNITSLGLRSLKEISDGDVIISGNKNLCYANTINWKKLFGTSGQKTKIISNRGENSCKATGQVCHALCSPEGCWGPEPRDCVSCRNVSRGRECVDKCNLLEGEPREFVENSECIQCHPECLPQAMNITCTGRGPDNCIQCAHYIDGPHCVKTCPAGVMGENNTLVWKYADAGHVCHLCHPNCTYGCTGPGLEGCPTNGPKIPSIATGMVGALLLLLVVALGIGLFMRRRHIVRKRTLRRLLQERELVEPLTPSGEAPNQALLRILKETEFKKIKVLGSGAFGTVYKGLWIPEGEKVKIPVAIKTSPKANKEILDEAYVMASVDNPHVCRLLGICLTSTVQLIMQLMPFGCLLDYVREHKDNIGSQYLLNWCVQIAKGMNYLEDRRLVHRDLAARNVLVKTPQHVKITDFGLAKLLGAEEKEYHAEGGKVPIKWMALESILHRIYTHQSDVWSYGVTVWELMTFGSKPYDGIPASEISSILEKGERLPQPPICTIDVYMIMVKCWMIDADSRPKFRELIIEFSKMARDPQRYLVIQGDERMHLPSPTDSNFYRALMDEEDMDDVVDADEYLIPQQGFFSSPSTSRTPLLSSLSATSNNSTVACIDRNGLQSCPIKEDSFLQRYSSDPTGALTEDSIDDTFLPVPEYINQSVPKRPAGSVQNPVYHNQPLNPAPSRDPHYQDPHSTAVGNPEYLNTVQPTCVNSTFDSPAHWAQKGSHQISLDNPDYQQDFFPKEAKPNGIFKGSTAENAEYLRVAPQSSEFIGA
Summary of the method: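 Compound exposure: 72 h, 37 °C, 4-fold series topping at 10,000 nM. Target cells are Ba/F3 transduced with EGFR exon 19 deletion plus T790M, selected by puromycin and IL-3 withdrawal. Viable cell number inferred from MTS metabolic conversion, A490 read 2 h after reagent addition.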

[5] = biological target: T5, human EGFR exon 20 insertion NPG (H773_V774insNPG) (Homo sapiens, UniProt P00533, INS772GNP); experiment: Ba/F3-EGFR-Exon20-NPG cell anti-proliferative assay (CellTiter 96 MTS, 72 h); conditions: Ba/F3-EGFR-Exon20-NPG cells
T5 construct: expressed in transfected cells; host or cells: Ba/F3 (murine pro-B) cells transduced with lentivirus from pLVX-IRES puro
T5 sequence (P00533 with tags, fused parts or gaps INS772GNP): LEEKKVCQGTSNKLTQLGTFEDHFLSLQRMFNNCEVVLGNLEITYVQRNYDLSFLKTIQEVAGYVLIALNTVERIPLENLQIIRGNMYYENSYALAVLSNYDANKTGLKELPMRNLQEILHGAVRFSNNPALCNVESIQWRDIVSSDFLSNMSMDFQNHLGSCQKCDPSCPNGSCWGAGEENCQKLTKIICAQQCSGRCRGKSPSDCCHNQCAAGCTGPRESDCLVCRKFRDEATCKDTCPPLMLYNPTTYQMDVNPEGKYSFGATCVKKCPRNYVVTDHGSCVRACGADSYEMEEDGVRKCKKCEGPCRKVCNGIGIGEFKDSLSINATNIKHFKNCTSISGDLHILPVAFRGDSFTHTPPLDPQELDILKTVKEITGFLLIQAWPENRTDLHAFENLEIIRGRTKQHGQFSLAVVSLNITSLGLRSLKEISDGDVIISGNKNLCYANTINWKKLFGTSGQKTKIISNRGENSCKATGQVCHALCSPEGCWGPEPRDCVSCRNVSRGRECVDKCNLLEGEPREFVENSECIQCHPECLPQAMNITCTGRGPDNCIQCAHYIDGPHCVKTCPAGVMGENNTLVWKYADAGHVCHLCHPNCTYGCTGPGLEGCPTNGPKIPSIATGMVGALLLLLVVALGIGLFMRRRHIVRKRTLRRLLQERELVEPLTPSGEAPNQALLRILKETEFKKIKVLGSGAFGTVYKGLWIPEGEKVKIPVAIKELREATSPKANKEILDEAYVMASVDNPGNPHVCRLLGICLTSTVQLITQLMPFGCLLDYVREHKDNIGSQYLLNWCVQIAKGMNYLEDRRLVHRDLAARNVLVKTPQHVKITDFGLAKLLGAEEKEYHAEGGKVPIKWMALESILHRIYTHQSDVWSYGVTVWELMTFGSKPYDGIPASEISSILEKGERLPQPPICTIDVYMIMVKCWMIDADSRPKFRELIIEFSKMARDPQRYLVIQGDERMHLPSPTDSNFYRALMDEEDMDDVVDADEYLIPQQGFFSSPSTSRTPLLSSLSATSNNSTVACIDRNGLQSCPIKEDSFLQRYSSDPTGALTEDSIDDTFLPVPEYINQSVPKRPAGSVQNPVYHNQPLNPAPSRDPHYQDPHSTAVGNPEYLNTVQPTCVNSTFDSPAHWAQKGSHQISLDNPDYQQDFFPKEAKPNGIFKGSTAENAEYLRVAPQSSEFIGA
Summary of the method: as §1

T1 sequence (P04626 with tags, fused parts or gaps INS775YVMA): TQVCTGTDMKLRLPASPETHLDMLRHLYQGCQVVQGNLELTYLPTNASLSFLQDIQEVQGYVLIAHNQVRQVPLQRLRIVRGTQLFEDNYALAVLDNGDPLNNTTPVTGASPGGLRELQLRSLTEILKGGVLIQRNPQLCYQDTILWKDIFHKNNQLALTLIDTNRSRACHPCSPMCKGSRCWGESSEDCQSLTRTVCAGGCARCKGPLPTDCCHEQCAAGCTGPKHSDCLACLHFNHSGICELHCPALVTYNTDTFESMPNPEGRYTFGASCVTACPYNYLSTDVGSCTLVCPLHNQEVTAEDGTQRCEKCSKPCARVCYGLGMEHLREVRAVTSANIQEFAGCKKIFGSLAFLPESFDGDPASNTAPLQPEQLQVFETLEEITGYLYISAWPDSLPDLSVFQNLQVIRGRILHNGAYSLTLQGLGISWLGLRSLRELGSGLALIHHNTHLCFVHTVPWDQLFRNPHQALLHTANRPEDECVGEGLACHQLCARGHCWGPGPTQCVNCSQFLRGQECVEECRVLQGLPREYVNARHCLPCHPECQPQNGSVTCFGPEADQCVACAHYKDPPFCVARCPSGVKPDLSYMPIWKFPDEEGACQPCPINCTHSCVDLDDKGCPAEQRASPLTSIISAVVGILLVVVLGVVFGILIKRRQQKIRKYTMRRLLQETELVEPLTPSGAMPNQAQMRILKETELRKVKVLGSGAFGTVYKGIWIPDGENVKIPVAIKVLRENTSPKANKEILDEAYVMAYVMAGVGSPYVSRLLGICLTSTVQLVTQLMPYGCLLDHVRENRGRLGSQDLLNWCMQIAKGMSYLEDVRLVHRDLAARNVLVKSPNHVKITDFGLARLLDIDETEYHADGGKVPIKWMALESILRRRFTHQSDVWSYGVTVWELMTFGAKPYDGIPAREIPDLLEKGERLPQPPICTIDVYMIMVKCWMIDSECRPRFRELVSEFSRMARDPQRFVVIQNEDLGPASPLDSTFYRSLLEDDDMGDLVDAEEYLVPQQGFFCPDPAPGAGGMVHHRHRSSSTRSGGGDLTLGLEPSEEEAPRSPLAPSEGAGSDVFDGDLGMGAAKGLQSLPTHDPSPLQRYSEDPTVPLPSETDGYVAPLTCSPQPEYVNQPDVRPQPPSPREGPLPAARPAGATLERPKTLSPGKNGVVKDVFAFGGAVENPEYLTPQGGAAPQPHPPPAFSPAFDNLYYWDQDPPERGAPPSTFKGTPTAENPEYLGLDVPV

Structure (SMILES)	IC50 [1] [µM]	IC50 [3] [µM]	IC50 [5] [µM]	EGFR exon 21 L858R and exon 20 T790M mutation IC50 [2]	EGFR exon 19 deletion and exon 20 T790M mutation IC50 [4]
C=CC(=O)Nc1cc(Nc2ncc(CCC(O)CC)c(-c3cn4c5c(cccc35)CCC4)n2)c(OC)cc1N(C)CCN(C)C (centres unmarked) [Example 38, N-(5-((4-(5,6-dihydro-4H-pyrrolo[3,2,1-ij]quinolin-1-yl)-5-(3-hydroxypentyl)pyrimidin-2-yl)amino)-2-((2-(dimethylamino)ethyl)(methyl)amino)-4-methoxyphenyl)acrylamide]	< 0.1	< 0.1	< 0.1	A (IC50 value for the indicated mutant below about 100 nM)	A (IC50 value for the indicated mutant below about 100 nM)
C=CC(=O)Nc1cc(Nc2ncc(C(=O)NCCO)c(-c3cn4c5c(cccc35)CCC4)n2)c(OC)cc1N(C)CCN(C)C [Example 48]	> 1	0.5 to 1	< 0.1	C (IC50 value for the indicated mutant between greater than about 500 to about 1 μM)	B (IC50 value for the indicated mutant between about 100 to about 500 nM)
C=CC(=O)Nc1cc(Nc2ncc(C#N)c(-c3cn4c5c(cccc35)CCC4)n2)c(OC)cc1N(C)CCN(C)C(C)C [Example 26, N-(5-((5-cyano-4-(5,6-dihydro-4H-pyrrolo[3,2,1-ij]quinolin-1-yl)pyrimidin-2-yl)amino)-2-((2-(isopropyl(methyl)amino)ethyl)(methyl)amino)-4-methoxyphenyl)acrylamide]	< 0.1	< 0.1	< 0.1	A (IC50 value for the indicated mutant below about 100 nM)	A (IC50 value for the indicated mutant below about 100 nM)
C=CC(=O)Nc1cc(Nc2ncc(C(=O)NCCOC)c(-c3cn4c5c(cccc35)CCC4)n2)c(OC)cc1N(C)CCN(C)C [Example 47, 2-((5-acrylamido-4-((2-(dimethylamino)ethyl)(methyl)amino)-2-methoxyphenyl)amino)-4-(5,6-dihydro-4H-pyrrolo[3,2,1-ij]quinolin--yl)-N-(2-methoxyethyl)pyrimidine-5-carboxamide]	0.5 to 1	0.1 to 0.5	< 0.1	C (IC50 value for the indicated mutant between greater than about 500 to about 1 μM)	B (IC50 value for the indicated mutant between about 100 to about 500 nM)
C=CC(=O)Nc1cc(Nc2ncc(C#N)c(-c3cn4c5c(cccc35)OCC4)n2)c(OC)cc1N(C)CCN(C)C [Example 4, N-(5-((5-cyano-4-(2,3-dihydro-[1,4]oxazino[2,3,4-hi]indol-6-yl)pyrimidin-2-yl)amino)-2-((2-(dimethylamino)ethyl)(methyl)amino)-4-methoxyphenyl)acrylamide]	< 0.1	< 0.1	< 0.1	A (IC50 value for the indicated mutant below about 100 nM)	A (IC50 value for the indicated mutant below about 100 nM)
C=CC(=O)Nc1cc(Nc2ncc(C#N)c(-c3cn4c5c(cccc35)CCC4)n2)c(OC)cc1N(C)CCNC [Example 84, N-(5-((5-cyano-4-(5,6-dihydro-4H-pyrrolo[3,2,1-ij]quinolin-1-yl)pyrimidin-2-yl)amino)-4-methoxy-2-(methyl(2-(methylamino)ethyl)amino)phenyl)acrylamide]	< 0.1	< 0.1	> 1	A (IC50 value for the indicated mutant below about 100 nM)	A (IC50 value for the indicated mutant below about 100 nM)
C=CC(=O)Nc1cc(Nc2ncc(-c3ncc[nH]3)c(-c3cn4c5c(cccc35)CCC4)n2)c(OC)cc1N(C)CCN(C)C [Example 97]	> 1	0.1 to 0.5	0.1 to 0.5	C (IC50 value for the indicated mutant between greater than about 500 to about 1 μM)	B (IC50 value for the indicated mutant between about 100 to about 500 nM)
C=CC(=O)Nc1cc(Nc2ncc(CCC3CCOC3)c(-c3cn4c5c(cccc35)CCC4)n2)c(OC)cc1N(C)CCN(C)C (centres unmarked) [Example 36, N-(5-((4-(5,6-dihydro-4H-pyrrolo[3,2,1-ij]quinolin-1-yl)-5-(2-(tetrahydrofuran-3-yl)ethyl)pyrimidin-2-yl)amino)-2-((2-(dimethylamino)ethyl)(methyl)amino)-4-methoxyphenyl)acrylamide]	0.1 to 0.5	0.1 to 0.5	< 0.1	B (IC50 value for the indicated mutant between about 100 to about 500 nM)	A (IC50 value for the indicated mutant below about 100 nM)

Further lines, with some results ahead:

IC50 [1] [µM]	IC50 [3] [µM]	IC50 [5] [µM]	Structure (SMILES)	EGFR exon 21 L858R and exon 20 T790M mutation IC50 [2]	EGFR exon 19 deletion and exon 20 T790M mutation IC50 [4]
> 1	> 1	> 1	C=CC(=O)Nc1cc(Nc2ncc(CCP(C)(C)=O)c(-c3cn4c5c(cccc35)CCC4)n2)c(OC)cc1N(C)CCN(C)C [Example 96]	D (IC50 value for the indicated mutant greater than about 1 μM)	D (IC50 value for the indicated mutant greater than about 1 μM)
0.1 to 0.5	0.1 to 0.5	< 0.1	C=CC(=O)Nc1cc(Nc2nccc(-c3cn4c5c(cccc35)CCC4)n2)c(OC)cc1N(C)CCN(C)C [Example 10, N-(5-((4-(5,6-dihydro-4H-pyrrolo[3,2,1-ij]quinolin-1-yl)pyrimidin-2-yl)amino)-2-((2-(dimethylamino)ethyl)(methyl)amino)-4-methoxyphenyl)acrylamide]	A (IC50 value for the indicated mutant below about 100 nM)	A (IC50 value for the indicated mutant below about 100 nM)
0.1 to 0.5	< 0.1	< 0.1	C=CC(=O)Nc1cc(Nc2ncc(C(N)=O)c(-c3cn4c5c(cccc35)CCC4)n2)c(OC)cc1N(C)CCN(C)C [Example 46, 2-((5-acrylamido-4-((2-(dimethylamino)ethyl)(methyl)amino)-2-methoxyphenyl)amino)-4-(5,6-dihydro-4H-pyrrolo[3,2,1-ij]quinolin-1-yl)pyrimidin-5-carboxamide]	A (IC50 value for the indicated mutant below about 100 nM)	A (IC50 value for the indicated mutant below about 100 nM)
< 0.1	< 0.1	> 1	C=CC(=O)Nc1cc(Nc2ncc(C#N)c(-c3cn4c5c(cccc35)CCC4)n2)c(OC)cc1N(C)CCN(C)C [Example 14, N-(5-((5-cyano-4-(5,6-dihydro-4H-pyrrolo[3,2,1-ij]quinolin-1-yl)pyrimidin-2-yl)amino)-2-((2-(dimethylamino)ethyl)(methyl)amino)-4-methoxyphenyl)acrylamide]	A (IC50 value for the indicated mutant below about 100 nM)	A (IC50 value for the indicated mutant below about 100 nM)
< 0.1	< 0.1	< 0.1	C=CC(=O)Nc1cc(Nc2ncc(C=C)c(-c3cn4c5c(cccc35)CCC4)n2)c(OC)cc1N(C)CCN(C)C [Example 27, N-(5-((4-(5,6-dihydro-4H-pyrrolo[3,2,1-ij]quinolin-1-yl)-5-vinylpyrimidin-2-yl)amino)-2-((2-(dimethylamino)ethyl)(methyl)amino)-4-methoxyphenyl)acrylamide]	A (IC50 value for the indicated mutant below about 100 nM)	A (IC50 value for the indicated mutant below about 100 nM)

Reference: patent US20170166598A1, “HETEROARYL COMPOUNDS FOR KINASE INHIBITION” (ARIAD PHARMACEUTICALS, INC., priority 2014, published 2017)
